Data reported in patent US20070111265A1, “Ligands for mineralocorticoid receptor (MR) and methods for screening for or designing MR ligands” (Van Andel Research Institute, priority 2005, published 2007).
Residue numbers refer to the chain shown, from its start. Entries after “also recorded” stand apart in the source; their conditions may differ.

Tests used:
Test in all cases: MMTV luciferase reporter assay in Cos-7 cells
Assay type in all cases: cell-based
MR L848Q/S843P = biological target: T1, MR L848Q/S843P (Homo sapiens, UniProt P08235, L848Q/S843P); settings: double mutation
T1 construct: (S843P and L848Q) within the context of the full length wild type receptor; expressed in transfected cells; host or cells: Cos-7
T1 sequence (P08235 1-984 S843P/L848Q): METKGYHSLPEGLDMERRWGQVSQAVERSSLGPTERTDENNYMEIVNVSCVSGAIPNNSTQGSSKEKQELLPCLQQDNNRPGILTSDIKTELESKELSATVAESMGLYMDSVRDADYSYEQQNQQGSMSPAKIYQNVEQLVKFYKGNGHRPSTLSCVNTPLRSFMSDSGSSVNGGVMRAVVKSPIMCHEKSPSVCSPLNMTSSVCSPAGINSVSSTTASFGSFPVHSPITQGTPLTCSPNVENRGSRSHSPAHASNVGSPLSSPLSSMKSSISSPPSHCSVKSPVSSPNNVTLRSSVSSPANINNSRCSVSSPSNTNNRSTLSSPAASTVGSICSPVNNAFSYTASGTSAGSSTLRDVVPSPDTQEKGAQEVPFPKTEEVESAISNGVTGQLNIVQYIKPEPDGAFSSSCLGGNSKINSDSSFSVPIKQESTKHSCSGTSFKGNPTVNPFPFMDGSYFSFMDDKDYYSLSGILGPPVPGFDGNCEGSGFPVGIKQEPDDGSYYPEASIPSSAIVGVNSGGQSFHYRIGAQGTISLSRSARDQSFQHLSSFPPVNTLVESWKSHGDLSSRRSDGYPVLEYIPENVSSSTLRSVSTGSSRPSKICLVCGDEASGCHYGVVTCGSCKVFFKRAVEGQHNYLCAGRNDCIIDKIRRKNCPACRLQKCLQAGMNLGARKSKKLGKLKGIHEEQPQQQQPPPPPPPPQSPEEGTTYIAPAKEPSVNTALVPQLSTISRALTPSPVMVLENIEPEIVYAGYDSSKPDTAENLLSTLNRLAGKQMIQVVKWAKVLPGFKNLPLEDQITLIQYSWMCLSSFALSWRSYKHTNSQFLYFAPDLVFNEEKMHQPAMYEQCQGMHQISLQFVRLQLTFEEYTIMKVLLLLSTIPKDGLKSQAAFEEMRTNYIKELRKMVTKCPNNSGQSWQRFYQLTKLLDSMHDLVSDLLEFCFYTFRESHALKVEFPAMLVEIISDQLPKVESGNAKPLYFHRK
Method: (§1) Cos-7 cells were maintained in DMEM containing 10% fetal bovine serum (FBS) and were transiently transfected using Lipofectamine 2000 (Invitrogen). […] Cells were transfected in Opti-MEM with 400 ng of MMTV-Luc reporter plasmid and 400 ng of receptor expression vector (pRS vector) encoding full-length GR and MR respectively (ATCC). […] Luciferase data were normalized to Renilla activity as an internal control.
(§2) To validate the role of the key MR pocket residues in hormone recognition, the inventors mutated S843 and L848 to the corresponding GR residues (S843P and L848Q) within the context of the full length wild type receptor. […] We also performed reverse mutations in the full length GR receptor (P637S and Q642L) and tested them in the same MMTV reporter.

GR Q642L/P637S = biological target: T2, GR Q642L/P637S (Homo sapiens, UniProt P04150, P637S/Q642L); settings: additional mutation of P637S
T2 construct: reverse mutations in the full length GR receptor (P637S and Q642L); expressed in transfected cells; host or cells: Cos-7
T2 sequence (P04150 1-777 P637S/Q642L): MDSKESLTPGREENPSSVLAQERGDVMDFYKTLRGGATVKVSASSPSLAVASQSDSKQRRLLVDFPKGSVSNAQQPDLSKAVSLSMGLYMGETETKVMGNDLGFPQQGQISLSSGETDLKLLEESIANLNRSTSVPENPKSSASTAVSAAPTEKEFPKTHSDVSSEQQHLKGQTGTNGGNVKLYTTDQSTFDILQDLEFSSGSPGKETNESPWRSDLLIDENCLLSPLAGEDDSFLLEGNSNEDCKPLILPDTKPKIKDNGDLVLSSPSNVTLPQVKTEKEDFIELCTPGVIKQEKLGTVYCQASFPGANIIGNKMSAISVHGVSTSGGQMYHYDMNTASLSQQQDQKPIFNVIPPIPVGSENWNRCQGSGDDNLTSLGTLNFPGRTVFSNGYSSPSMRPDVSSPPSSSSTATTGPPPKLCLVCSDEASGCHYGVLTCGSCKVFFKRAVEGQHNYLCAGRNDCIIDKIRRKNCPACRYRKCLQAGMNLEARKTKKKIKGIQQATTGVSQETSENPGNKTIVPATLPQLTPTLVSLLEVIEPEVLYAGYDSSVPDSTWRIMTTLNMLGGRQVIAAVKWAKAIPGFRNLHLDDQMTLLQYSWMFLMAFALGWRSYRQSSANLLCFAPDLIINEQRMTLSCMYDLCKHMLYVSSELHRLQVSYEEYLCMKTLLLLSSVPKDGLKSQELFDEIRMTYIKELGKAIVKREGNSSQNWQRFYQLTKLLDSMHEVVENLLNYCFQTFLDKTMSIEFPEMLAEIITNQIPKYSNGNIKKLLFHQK
Method: as §1, §2

GR Q642L = biological target: T3, GR Q642L (Homo sapiens, UniProt P04150, Q642L); settings: Cos-7, MMTV-Luc
T3 construct: reverse mutations in the full length GR receptor (P637S and Q642L); expressed in transfected cells; host or cells: Cos-7
T3 sequence (P04150 1-777 Q642L): T2 sequence (P04150 1-777 P637S/Q642L) with S637P
Method: as §1, §2

Row | SMILES | activation of MR L848Q/S843P (MR L848Q/S843P) | activation of GR Q642L/P637S (GR Q642L/P637S) | activation of GR Q642L (GR Q642L)
1 | C[C@]12CCC(=O)C=C1CC[C@@H]1[C@@H]2[C@@H](O)C[C@@]2(C)[C@H]1CC[C@]2(O)C(=O)CO [cortisol] | totally abolished; also recorded: severely affects activation | severely affects activation | completely abolished activation; also recorded: inability of cortisol to activate
2 | C[C@]12C[C@H](O)[C@H]3[C@@H](CCC4=CC(=O)CC[C@@]43C)[C@@H]1CC[C@@H]2C(=O)CO [corticosterone] | totally abolished; also recorded: severely affects activation | severely affects activation | remained intact
